The record followed here is ChEMBL document CHEMBL3507680, “University of Dundee, Gates Library screen for HepG2 cell viability”.

A short description of the data set: Human HepG2 cell viability assay in 384 well format. Also on record: dose 125 nL, time 70.5 hour; concentration not given beside the values. The class given is toxicity, cell-based. Particulars: HepG2 cells, read-out: Inhibition.

On to `CSCCC(=O)N1CC[C@@H](N2CCN(c3ccccc3F)CC2)[C@H](O)C1`, for which the cytotoxicity at 70.5 h was determined as 33.8%.

As to `Cc1cc(N2CCN(C(=O)CCc3scnc3C)CC2)cc(C)n1`, the cytotoxicity at 70.5 h turned out to be 21.2%.

`COc1ccc2c(c1)Cc1c-2nc(N)c(C#N)c1C1CCOC1` (centres undefined): the cytotoxicity at 70.5 h turned out to be 2.5%.

For the compound `CN(C)C(=O)N1C[C@@H]2CC[C@H](C1)N(C(=O)c1cccc(N(C)C)c1)C2`, the cytotoxicity at 70.5 h is -4.96%.

As to `NC(=O)CN1CC2(CCC1=O)CCN(Cc1ccc(F)cc1Cl)CC2`, the cytotoxicity at 70.5 h was -1.9%.

Consider `O=C(NCC(F)F)c1ccc(S(=O)(=O)N2CCCC(O)C2)cc1` (centres undefined), for which the cytotoxicity at 70.5 h was 18.2%.

`COCCc1noc(Cn2c(=O)[nH]c3ccccc32)n1`: the cytotoxicity at 70.5 h is -10.2%.

Consider `CCN1CC2(CCN(CC3CCCO3)CC2)OC1=O` (centres undefined), for which the cytotoxicity at 70.5 h was -2.54%.

For `CNc1ncc(C(=O)N2CC[C@@](O)(C3CCOCC3)[C@H](C)C2)cn1`, the cytotoxicity at 70.5 h was determined as 5.71%.

In the case of `Cn1cc(-c2ccnc(NCC3CCN(Cc4ccccc4)C3)n2)cn1` (centres undefined), the cytotoxicity at 70.5 h stood at 11.9%.

For `COc1ccnc(CNc2cc(C3CC3)ncn2)c1`, the cytotoxicity at 70.5 h is -11.7%.

With `COCc1noc(CN2C(=O)OC[C@@H]2C(C)C)n1`, the cytotoxicity at 70.5 h was 19.3%.

As to `O=C(N1CCC(OCc2ccccn2)CC1)C1(c2ccc(F)cc2)CC1`, the cytotoxicity at 70.5 h was -0.41%.

For the compound `Cc1cc2nc(C(C)C)cc(N3CCN(c4ccc(O)cc4)CC3)n2n1`, the cytotoxicity at 70.5 h is -1.87%.

As for `COc1cc2c(cc1OC)CN(Cc1ncccc1C(=O)O)CC2`, the cytotoxicity at 70.5 h was -13.5%.

Take `C[C@@H]1CN(Cc2ccncc2)C[C@]1(C)O`: the cytotoxicity at 70.5 h was -18%.

`Cc1ccc(-c2ccnc(N3CCC4(CCO4)CC3)n2)c(C)n1`: the cytotoxicity at 70.5 h is -6.98%.

On to `CCc1nc2c(c(NCc3nc(-c4cccnc4)no3)n1)CCNCC2`, for which the cytotoxicity at 70.5 h was -2.89%.

Consider `COCC1(CNC(=O)Nc2cc(F)ccc2OC)CCCC1`, for which the cytotoxicity at 70.5 h was found to be 6.61%.

In the case of `CC(C)C[C@H]1CN(c2nc3c(cc2C(N)=O)CCC3)CC[C@@]1(C)O`, the cytotoxicity at 70.5 h is -7.33%.

Consider `CN1C[C@@H](n2cnc(-c3ccccc3)c2-c2nccn2C)C[C@H]1C(=O)O`, for which the cytotoxicity at 70.5 h was -11.9%.

`Cc1nn(C)cc1-c1ccnc(N(C)Cc2cnn(C)c2)n1`: the cytotoxicity at 70.5 h is -2.26%.

As to `CCOc1ccc(-c2ccc3c(c2)OCO3)cc1C(N)=O`, the cytotoxicity at 70.5 h was determined as 5.58%.

For the compound `COc1cccc(OC2CN(C(=O)c3c(C)noc3C)C2)c1`, the cytotoxicity at 70.5 h was -9.88%.

With `O=C(CO)N1CC[C@@H](N2CCN(c3ccccc3F)CC2)[C@H](O)C1`, the cytotoxicity at 70.5 h stood at 6.39%.

As to `CN(Cc1cccc(OCCO)c1)Cc1cccc2ncccc12`, the cytotoxicity at 70.5 h was 19.3%.

In the case of `CN1CCN(Cc2cnn(-c3ccc(F)cc3)c2)[C@H]2CS(=O)(=O)C[C@H]21`, the cytotoxicity at 70.5 h is -4.08%.

With `c1csc(CN(Cc2ccsc2)CC2CCCO2)n1` (centres undefined), the cytotoxicity at 70.5 h was -1.84%.

As for `CCN(Cc1ccncc1)C(=O)C1COc2c(cccc2OC)C1` (centres undefined), the cytotoxicity at 70.5 h was found to be 6.05%.

With `O=C1NCC2(CCCN(C(=O)c3ccc4c(c3)OCCO4)CC2)O1` (centres undefined), the cytotoxicity at 70.5 h is -2.63%.

With `COC(=O)N1CCN(C(=O)c2ccc(C)c(N3CCNC3=O)c2)CC1`, the cytotoxicity at 70.5 h turned out to be 14%.

With `CC(C)(O)CCc1cccc(C(=O)NCc2cnn3cccnc23)c1`, the cytotoxicity at 70.5 h is -4.68%.

As for `Cn1cc(CN2CCCC(CCc3ccc(F)c(F)c3)C2)cn1` (centres undefined), the cytotoxicity at 70.5 h was -2.93%.

Take `Cc1cc(C)n2nc(C(=O)N[C@H]3C[C@H]4CN(C)CCN4C3)cc2n1`: the cytotoxicity at 70.5 h is -6.02%.

On to `CC(C)CN1CCCC1c1ccc(C(=O)Nc2cn(C)nn2)s1` (centres undefined), for which the cytotoxicity at 70.5 h was -0.657%.

On to `CCn1ncc(C(=O)N2CCCN(CCCc3ccccc3)CC2)c1C`, for which the cytotoxicity at 70.5 h is -2.97%.

Consider `CCCS(=O)(=O)N1CCC2(CC1)CC(=O)N(Cc1cc(F)cc(F)c1)C2`, for which the cytotoxicity at 70.5 h was -7.19%.

Turning to `C=C(C)COc1ccccc1C(=O)NCCc1cc(O)nc(C)n1`, the cytotoxicity at 70.5 h is -11.9%.

Take `CN(Cc1n[nH]c2c1CCCC2)c1nc(C2CC2)nc2c1CCNCC2`: the cytotoxicity at 70.5 h is -1.06%.

For the compound `O=C(c1cnc(C2CC2)nc1O)N1CCN(Cc2ccccc2F)CC1`, the cytotoxicity at 70.5 h was 0.38%.

For `COCCN1CCCC2(CCN(c3nccnc3N(C)C)C2)C1=O` (centres undefined), the cytotoxicity at 70.5 h is -14.9%.

On to `O=C(c1ccccc1C(F)(F)F)N1CC[C@@H](N2CCC(O)CC2)[C@H](O)C1`, for which the cytotoxicity at 70.5 h was -1.82%.

As for `CCc1nc(C)c(CN2CCN(c3ncnc4c(C)csc34)CC2)[nH]1`, the cytotoxicity at 70.5 h is -14%.

`CC(C)[C@H]1COC(=O)N1Cc1nccn1C1CC1`: the cytotoxicity at 70.5 h is -3.35%.

On to `Cc1ccc(F)c(NC(=O)CCC(=O)N(C)Cc2cc(C3CC3)[nH]n2)c1`, for which the cytotoxicity at 70.5 h is -8.19%.

Regarding `COc1ccc([C@@H]2CN(C(=O)CCn3cccn3)C[C@H]2NC(C)=O)cc1`, the cytotoxicity at 70.5 h was found to be 6.76%.

For the compound `Cc1cc(N2CCC(C(=O)O)(n3ccc(C(C)C)n3)CC2)nc(N)n1`, the cytotoxicity at 70.5 h is 6.37%.

Turning to `OC1(CN2CCCCC2)CCN(c2ccc(C(F)(F)F)cn2)C1` (centres undefined), the cytotoxicity at 70.5 h is -4.17%.

As for `CN(C)C1CCCN(C(=O)CCc2csc(N)n2)CC1` (centres undefined), the cytotoxicity at 70.5 h came out at 1.01%.

Consider `Cc1ccc2oc(CN3CCC(C(=O)O)(n4ccnc4)CC3)c(C)c2c1`, for which the cytotoxicity at 70.5 h is -16.8%.

In the case of `CSc1ccc(C(C(=O)O)N2CCC(C(=O)N3CCCC3)CC2)cc1` (centres undefined), the cytotoxicity at 70.5 h is -4.74%.

On to `COCCNS(=O)(=O)c1cccc2c1CN(C(=O)c1cc(C)on1)CC2`, for which the cytotoxicity at 70.5 h was -2.31%.

`COc1cc(C)ccc1S(=O)(=O)N1CC[C@](C)(O)[C@H](C)C1`: the cytotoxicity at 70.5 h was -5.97%.

In the case of `Cc1cc(-c2nc(-c3ccccn3)nn2C2CCN(C)CC2)nc(C)n1`, the cytotoxicity at 70.5 h was -3.28%.

As for `Cc1c(CN2CCCC(C(=O)c3ccccc3)C2)cc(C#N)n1C` (centres undefined), the cytotoxicity at 70.5 h was -4.58%.

For `O=C(CC1CCc2ccccc21)NC1(C(=O)O)CCOCC1` (centres undefined), the cytotoxicity at 70.5 h is -14%.

As to `CC(NC(=O)CCCc1ccc(Cl)cc1)c1nnn[nH]1` (centres undefined), the cytotoxicity at 70.5 h is -11.1%.

In the case of `Cc1cccc(C(C(=O)N2CC(c3ccccn3)C2)N(C)C)c1` (centres undefined), the cytotoxicity at 70.5 h is -3.41%.

In the case of `CC(O)c1cn(CC2CCN(C(=O)CN(C)C(C)C)CC2)nn1` (centres undefined), the cytotoxicity at 70.5 h is -6.36%.

As to `O=C(c1ccnc(-n2cnnc2)c1)N1CCCC2(CCOC2)C1` (centres undefined), the cytotoxicity at 70.5 h is -2.19%.

On to `COc1cc2cc(C(=O)NC(C)C(=O)O)n(C)c2c(OC)c1OC` (centres undefined), for which the cytotoxicity at 70.5 h is -7.07%.

In the case of `O=C(C1CC(=O)N(c2ccccc2)C1)N1CCC2(CC1)OCCO2` (centres undefined), the cytotoxicity at 70.5 h came out at 5.21%.

As to `CCCc1cc(=O)[nH]c(-c2ccccc2CN(C)CCn2cccn2)n1`, the cytotoxicity at 70.5 h is 5.03%.

Turning to `Cc1ccc(-n2ncc3c2CCCC3N)cc1C` (centres undefined), the cytotoxicity at 70.5 h was -4%.

Turning to `Cc1nc2sccn2c1C(=O)N1CCc2c(nc(N)[nH]c2=O)C1`, the cytotoxicity at 70.5 h is -4.21%.

Take `O=S(=O)(c1cc(F)ccc1F)N1CCCC1c1ccco1` (centres undefined): the cytotoxicity at 70.5 h is -6.01%.

On to `O=c1[nH]c(NC2CCCC2)nc2nccc(-c3cccs3)c12`, for which the cytotoxicity at 70.5 h was -4.19%.

For the compound `COCCCn1c(CN2CCCCO2)cnc1S(=O)(=O)C1CCCC1`, the cytotoxicity at 70.5 h was -4.4%.

As for `Cc1noc(-c2ccc(N[C@H]3CCCCNC3=O)nc2)n1`, the cytotoxicity at 70.5 h was -1.42%.
